Laboratory results published in paper PMC8815882, “Screening the pandemic response box identified benzimidazole carbamates, Olorofim and ravuconazole as promising drug candidates for the treatment of eumycetoma” (PLoS Neglected Tropical Diseases, 2022).
Read-outs that look alike come from different tables or passages of the source.

Tested on: M. mycetomatis genome strain MM55
Test: CLSI M38-A2 based in vitro susceptibility screening (XTT or resazurin), growth at fixed concentration
Assay type: cell-based, Madurella mycetomatis
Details: Madurella mycetomatis; for Percent fungal survival at 100 µM: read-out: Percentage survival at 100um, 100 uM A (second replicate column)
[1] = mean of three replicates, read-out: Percentage survival at 25um, 25 uM mean
[2] = replicate A, read-out: Percentage survival at 25um, 25 um A
[3] = replicate B, read-out: Percentage survival at 25um, 25 uM B
[4] = replicate C, read-out: Percentage survival at 25um, 25 uM C
[5] = mean of three replicates, read-out: Percentage survival at 100um, 100 uM mean
[6] = replicate 1, read-out: Percentage survival at 100um, 100 uM A (first replicate column)
[7] = replicate 3, read-out: Percentage survival at 100um, 100 uM A (third replicate column)
[8] = mean of replicates, read-out: Percentage survival at 25um, 25 uM mean
[9] = mean of replicates, read-out: Percentage survival at 100um, 100 uM mean
[10] = replicate 1, read-out: Percentage survival at 100um, 100 uM A
[11] = replicate 2, read-out: Percentage survival at 100um, 100 uM A
[12] = replicate 3, read-out: Percentage survival at 100um, 100 uM A
[13] = first replicate column, read-out: Percentage survival at 100um, 100 uM A
[14] = second replicate column, read-out: Percentage survival at 100um, 100 uM A
[15] = third replicate column, read-out: Percentage survival at 100um, 100 uM A

SMILES | activity at 25 µM [1] | activity at 25 µM [2] | activity at 25 µM [3] | activity at 25 µM [4] | activity at 100 µM [5] | activity at 100 µM [6] | Percent fungal survival at 100 µM (replicate 2) | activity at 100 µM [7] | activity at 25 µM [8] | activity at 100 µM [9] | activity at 100 µM [13] | activity at 100 µM [14] | activity at 100 µM [15] | other results
Cc1ncc([N+](=O)[O-])n1CC(O)CN1CCOCC1 (centres unmarked) [MMV1613562] | 110% | 99.4% | 137% | 94% | 94.6% | 93.7% | 86.5% | 104% | – | – | – | – | – | –
COc1cc(Cc2cnc(N)nc2N)c2c(c1OC)OC(C1CC1)C=C2 (centres unmarked) [MMV1613563] | – | 106% | 107% | 86.9% | – | 93.6% | 93.2% | 87.7% | 99.9% | 91.5% | – | – | – | –
C=C[C@]1(C)C[C@@H](OC(=O)CS[C@@H]2C[C@H]3CC[C@@H](C2)N3C)[C@]2(C)[C@H](C)CC[C@]3(CCC(=O)[C@H]32)[C@@H](C)[C@@H]1O [MMV1633674] | – | 84.6% | 97.9% | 85.5% | – | – | – | – | 89.3% | 48.4% | – | – | – | activity at 100 µM [10]: -3.26%; activity at 100 µM [11]: 61.3%; activity at 100 µM [12]: 87%
CC(C)c1cc2c(cc1S(=O)(=O)O)[C@@]1(C)CCC[C@@](C)(C(=O)O)[C@@H]1CC2 [MMV1633675] | 79.3% | 73.4% | 82.6% | 81.8% | 82.2% | 91.1% | 74% | 81.5% | – | – | – | – | – | –
Nc1nc2c(ncn2[C@@H]2O[C@H](CO)[C@@H](O)[C@H]2F)c(=O)[nH]1 [MMV1633677] | 85.2% | 76.3% | 91.2% | 88.1% | 83.6% | – | – | – | – | – | 85.8% | 80.2% | 84.7% | –
CC[C@@]1(O)C(=O)OCc2c1cc1n(c2=O)Cc2cc3c(CN(C)C)c(O)ccc3nc2-1 [MMV1633678] | 101% | 86.9% | 110% | 108% | 89.5% | – | – | – | – | – | 94.8% | 86.7% | 86.9% | –
CCc1ccccc1OCCN1CCCCCC1 [MMV1633962] | 60.1% | 47.9% | 69.8% | 62.5% | 61.5% | – | – | – | – | – | 61.1% | 62.7% | 60.6% | –
O=C(O)/C=C/C=C/c1cccc(Oc2cc(Cl)cc(Cl)c2)c1 [MMV1633963] | – | – | – | – | – | – | – | – | – | – | – | – | – | activity at 25 µM (mean of replicates, MM55, read-out: Percentage survival at 25um, 25 uM mean): 44.9%; activity at 25 µM (replicate A, MM55, read-out: Percentage survival at 25um, 25 um A): 58.7%; activity at 25 µM (replicate B, MM55, read-out: Percentage survival at 25um, 25 uM B): 58.6%; activity at 25 µM (replicate C, MM55, read-out: Percentage survival at 25um, 25 uM C): 17.4%; activity at 100 µM (mean of replicates, MM55, read-out: Percentage survival at 100um, 100 uM mean): 7.42%; activity at 100 µM (replicate 1, MM55, read-out: Percentage survival at 100um, 100 uM A): 7.5%; activity at 100 µM (replicate 2, MM55, read-out: Percentage survival at 100um, 100 uM A): 5.34%; activity at 100 µM (replicate 3, MM55, read-out: Percentage survival at 100um, 100 uM A): 9.43%
O=C(NCCN1CCCCC1)c1cccc(C(F)(F)F)c1 [MMV1633964] | 86.8% | 87.8% | 90.2% | 82.3% | 81.1% | – | – | – | – | – | 77.6% | 90.5% | 75.1% | –
COc1c(NC(=O)[C@H]2CC[C@@H](COc3ccc([N+](=O)[O-])cc3)CC2)c(F)cc2c(=O)c(C(=O)O)cn(C3CC3)c12 [MMV1633965] | – | 86.3% | 88.2% | 76% | – | – | – | – | 83.5% | 82.8% | – | – | – | activity at 100 µM [10]: 86.1%; activity at 100 µM [11]: 78.7%; activity at 100 µM [12]: 83.4%
